US8735421B2, “Imidazoquinolinyl sulfonamides” (3M Innovative Properties Company, priority 2003, dated 2014)

In the case of CCOCc1nc2c(N)nc3ccccc3c2n1CC(C)(C)CS(=O)(=O)NC [Example 36, 3-[4-Amino-2-(ethoxymethyl)-1H-imidazo[4,5-c]quinolin-1-yl]-N,2,2-trimethylpropane-1-sulfonamide], the melting point is reported as 161 to 163 °C.

With CCOCc1nc2c(N)nc3cccnc3c2n1CCCCS(=O)(=O)N(C)C [Example 29, N,N-Dimethyl 4-(4-Amino-2-ethoxymethyl-1H-imidazo[4,5-c][1,5]naphthyridin-1-yl)butane-1-sulfonamide] the melting point was 148 to 150 °C.

CCOCc1nc2c(N)nc3c(c2n1CCCCS(=O)(=O)N(C)C)CCCC3 [Example 19, N,N-Dimethyl 4-(4-amino-2-ethoxymethyl-6,7,8,9-tetrahydro-1H-imidazo[4,5-c]quinolin-1-yl)butane-1-sulfonamide] gave a melting point of 165 to 167 °C.

Work on CCOCc1nc2c(N)nc3c(c2n1CCCCS(N)(=O)=O)CCCC3 [Example 24, 4-(4-Amino-2-ethoxymethyl-6,7,8,9-tetrahydro-1H-imidazo[4,5-c]quinolin-1-yl)butane-1-sulfonamide] yielded a melting point of 224 to 227 °C.
